We go through ten molecules from US4847306A, “Antihypercholesterolemic compounds” (Merck & Co., Inc., priority 1988, dated 1989).

The experiment has as its system HMG-CoA reductase. Nature of the experiment: HMG-CoA Reductase Inhibition Assay (in vitro, intrinsic inhibitory activity). In kind it is biochemical. The note with it: compactin assigned a value of 100; IC50 of test compound compared with that of compactin determined simultaneously; tested as sodium salt of dihydroxy acid form; solubilized rat liver microsomal enzyme. As to the method: The intrinsic HMG-CoA reductase inhibition activity of the claimed compounds is measured in the in vitro protocol published in J. Med. Chem., 28, P. 347-358 (1985) and described below:
Isolation of HMG-CoA Reductase. Male Holtzman Sprague-Dawley rate (225-250 g) were kept on reversed lighting and fed Purina rat chow containing 3% cholestyramine for 7 days preceding their sacrifice by CO2 asphyxiation. Livers were removed 6 hours into the dark cycle and used immediately to prepare microsomes. HMG-CoA reductase was solubilized from the freshly prepared microsome by the method of Heller and Shrewsbury [J. Boil Chem., 1976, 251,3815], and purified through the second ammonium sulfate precipitation step as described by Kleinsek et al., [Proc. Natl. Acad. Sci. USA, 1977, 74, 1431]. The enzyme preparation was tested for HMG-CoA reductase potency and diluted with 100 mM phosphate buffer (pH 7.2) so that 100 μL of the enzyme solution, when added to the assay control, gave a value of 50,000-60,000 dpm. The enzyme preparation was stored at -80° C.
HMG-CoA Reductase Inhibition Assay. The assay is essentially the procedure of Shefer et al., [J. Lipid Res., 1972, 13, 402]. The complete assay medium contained the following in a total volume of 0.8 mL: phosphate buffer, pH 7.2, 100 mM; MgCl2, 3 mM; NADP, 3 mM; glucose 6-phospate, 10 mM; glucose-6-phosphate dehydrogenase, 3 enzyme units; reduced glutathione, 50 mM; HMG-CoA (glutaryl-3-^14C, New England Nuclear), 0.2 mM (0.1 μCi); and partially purified enzyme stock solution, 100 μL.
Test compounds or compactin (after first being converted to the sodium salt of their dihydroxy acid form in situ by addition of 1N NaOH (1 equiv)) were added to the assay system in 10-μL volumes at multiconcentration levels. After a 40-minute incubation at 37° C. with shaking and exposure to air, the reaction was stopped by the addition of 0.4 mL of 8N HCl. After an additional 30-minute incubation period at 37° C. to ensure the complete lactonization of mevalonic acid to mevalonolactone, 0.2 mL of the mixture was added to an 0.5×5.0 cm column containing 100-200-mesh Bio-Rex 5, chloride form (Bio-Rad), wetted with distilled water, as described by Alberts et al. [J. Proc. Natl. Acad. Sci. U.S.A., 1980, 77, 3957]. The unreacted [^14 C]HMG-CoA was absorbed on the resin and the [^14 C]mevalonolacetone was eluted with distilled water (2×1 mL) directly into 7-mL scintillation vials. Five milliliters of Aquasol-2 (New England Nuclear) was added to each vial, and radioactivity was measured in a Packard Tri Carb Prias scintillation counter. IC50 values were determined by plotting percentage inhibition against test compound concentration and fitting a straight line to the resulting data by using the least-squares method. For estimation of relative inhibitory potencies, compactin was assigned a value of 100 and the IC50 value of the test compound was compared with that of compactin determined simultaneously.
A general note: Liver microsomes are vesicles of endoplasmic reticulum, rich in cytochrome P450 enzymes.
Consider `CSC1(C(=O)O[C@H]2C[C@@H](C)C=C3C=C[C@H](C)[C@H](CC[C@@H](O)C[C@@H](O)CC(=O)O)[C@H]32)CCCC1`, for which the “Relative Potency” value stood at 167. With `C[C@H]1C=C2C=C[C@H](C)[C@H](CC[C@@H](O)C[C@@H](O)CC(=O)O)[C@H]2[C@@H](OC(=O)C2(C)CC2)C1` the figure was 76. The same measure for `C[C@H]1C=C2C=C[C@H](C)[C@H](CC[C@@H](O)C[C@@H](O)CC(=O)O)[C@H]2[C@@H](OC(=O)C2(CO)CCC2)C1`: 88; for `C[C@H]1C=C2C=C[C@H](C)[C@H](CC[C@@H](O)C[C@@H](O)CC(=O)O)[C@H]2[C@@H](OC(=O)C2(C)CCCC2)C1`: 188; for `CSC1(C(=O)O[C@H]2C[C@@H](C)C=C3C=C[C@H](C)[C@H](CC[C@@H](O)C[C@@H](O)CC(=O)O)[C@H]32)CCC1`: 240. As for `C[C@H]1C=C2C=C[C@H](C)[C@H](CC[C@@H](O)C[C@@H](O)CC(=O)O)[C@H]2[C@@H](OC(=O)C2(C)CCC2)C1`, the “Relative Potency” value was 171. For `C[C@H]1C=C2C=C[C@H](C)[C@H](CC[C@@H](O)C[C@@H](O)CC(=O)O)[C@H]2[C@@H](OC(=O)C2(Cc3ccccc3)CCC2)C1`, the “Relative Potency” value was determined as 156. Take `C[C@H]1C=C2C=C[C@H](C)[C@H](CC[C@@H](O)C[C@@H](O)CC(=O)O)[C@H]2[C@@H](OC(=O)C2(C)CCCCC2)C1`: the “Relative Potency” value was determined as 217.

As for `C[C@H]1C=C2C=C[C@H](C)[C@H](CC[C@@H](O)C[C@@H](O)CC(=O)O)[C@H]2[C@@H](OC(=O)C2(Cc3ccc(O)cc3)CCC2)C1`, the “Relative Potency” value is reported as 200. With `C[C@H]1C=C2C=C[C@H](C)[C@H](CC[C@@H](O)C[C@@H](O)CC(=O)O)[C@H]2[C@@H](OC(=O)C2(CCCO)CCC2)C1` the figure was 100.
